Experimental findings from US9957268B2, “1H-pyrrolo[2,3,c]pyridin-7(6H)-ones and pyrazolo[3,4-c]pyridin-7(6H)-ones as inhibitors of BET proteins” (Incyte Corporation, priority 2014, dated 2018) are described below.

Experiment [1] concerns the target BRD4-BD1 (Homo sapiens (Human), UniProt O60885). Kind of experiment: BRD4 AlphaScreen assay (BRD4-BD1). The format is binding. Particulars: biotin-labeled tetra-acetylated histone H4 peptide. On the procedure: (§1) BRD4-BD1 and BRD4-BD2 assays were conducted in white 384-well polystyrene plate in a final volume of 40 μL for BD1 and 60 μL for BD2. Inhibitors were first serially diluted in DMSO and added to the plate wells before the addition of other reaction components. The final concentration of DMSO in the assay was 1.25% (BD1) and 0.83% (BD2). The assays were carried out at room temperature in the assay buffer (50 mM Tris-HCl, pH 7.5, 0.01% Tween-20, 0.01% BSA, 5 mM DTT), containing 50 nM Biotin-labeled tetra-acetylated histone H4 peptide (H4Ac4) and BRD4-BD1 or BRD4-BD2 protein at concentration less than 1 nM. The incubation for 75 min. was followed by the addition of 20 μL of assay buffer supplemented with Streptavidin donor beads (PerkinElmer 6760002) and GSH Acceptor beads (PerkinElmer-AL109C) at final concentration 2-4 μg/mL under reduced light. After plate sealing, the plate was incubated in the dark at room temperature for 75 min. before reading on a PHERAstar FS plate reader (BMG Labtech). IC50 determination was performed by fitting the curve of percent control activity versus the log of the inhibitor concentration using the GraphPad Prism 5.0 software.

For experiment [2], the target named is BRD4-BD2 (Homo sapiens (Human), UniProt O60885). Nature of the experiment: BRD4 AlphaScreen assay (BRD4-BD2). The format is binding. Particulars: biotin-labeled tetra-acetylated histone H4 peptide. On the procedure: as §1

As for `COc1cc2c(c(-c3cn(C)c(=O)c4[nH]ccc34)c1)OC(C(C)C)C(=O)N2` (single isomer, unassigned) [Example 9A, 2-isopropyl-6-methoxy-8-(6-methyl-7-oxo-6,7-dihydro-1H-pyrrolo[2,3-c]pyridin-4-yl)-2H-1,4-benzoxazin-3(4H)-one], the IC50 in experiment [1] and in experiment [2] was ≤ 100 nM throughout.

On to `COc1cc2c(c(-c3cn(C)c(=O)c4[nH]ccc34)c1)OC(C(C)C)C(=O)N2` (single isomer, unassigned) [Example 9B, 2-isopropyl-6-methoxy-8-(6-methyl-7-oxo-6,7-dihydro-1H-pyrrolo[2,3-c]pyridin-4-yl)-2H-1,4-benzoxazin-3(4H)-one], for which the IC50 in experiment [1] and in experiment [2] was ≤ 100 nM in each case.

As for `COc1cc2c(c(-c3cn(C)c(=O)c4[nH]ccc34)c1)OC(c1ccccc1)C(=O)N2` (single isomer, unassigned) [Example 24A, 6-methoxy-8-(6-methyl-7-oxo-6,7-dihydro-1H-pyrrolo[2,3-c]pyridin-4-yl)-2-phenyl-2H-1,4-benzoxazin-3(4H)-one], the half-inhibitory concentration (IC50) in experiment [1] and in experiment [2] was ≤ 100 nM throughout.

Consider `COc1cc2c(c(-c3cn(C)c(=O)c4[nH]ccc34)c1)OC(c1ccccc1)C(=O)N2` (single isomer, unassigned) [Example 24B, 6-methoxy-8-(6-methyl-7-oxo-6,7-dihydro-1H-pyrrolo[2,3-c]pyridin-4-yl)-2-phenyl-2H-1,4-benzoxazin-3(4H)-one], for which the IC50 in experiment [1] and in experiment [2] was ≤ 100 nM throughout.

With `COc1cc2c(c(-c3cn(C)c(=O)c4[nH]ccc34)c1)OC(C1CCCC1)C(=O)N2` (single isomer, unassigned) [Example 35A, 2-Cyclopentyl-6-methoxy-8-(6-methyl-7-oxo-6,7-dihydro-1H-pyrrolo[2,3-c]pyridin-4-yl)-2H-1,4-benzoxazin-3(4H)-one], the concentration for half-maximal inhibition (IC50) in experiment [1] and in experiment [2] was ≤ 100 nM each time.

Take `COc1cc2c(c(-c3cn(C)c(=O)c4[nH]ccc34)c1)OC(C1CCCC1)C(=O)N2` (single isomer, unassigned) [Example 35B, 2-Cyclopentyl-6-methoxy-8-(6-methyl-7-oxo-6,7-dihydro-1H-pyrrolo[2,3-c]pyridin-4-yl)-2H-1,4-benzoxazin-3(4H)-one]: the 50% inhibitory concentration (IC50) in experiment [1] and in experiment [2] was ≤ 100 nM in each case.

Consider `COc1cc2c(c(-c3cn(C)c(=O)c4[nH]ncc34)c1)OC(C1CCCC1)C(=O)N2` (single isomer, unassigned) [Example 42A, 2-cyclopentyl-6-methoxy-8-(6-methyl-7-oxo-6,7-dihydro-1H-pyrazolo[3,4-c]pyridin-4-yl)-2H-1,4-benzoxazin-3(4H)-one], for which the IC50 in experiment [1] and in experiment [2] was ≤ 100 nM throughout.

As to `COc1cc2c(c(-c3cn(C)c(=O)c4[nH]ncc34)c1)OC(C1CCCC1)C(=O)N2` (single isomer, unassigned) [Example 42B, 2-cyclopentyl-6-methoxy-8-(6-methyl-7-oxo-6,7-dihydro-1H-pyrazolo[3,4-c]pyridin-4-yl)-2H-1,4-benzoxazin-3(4H)-one], the IC50 in experiment [2] is ≤ 100 nM.

As to `COc1cc2c(c(-c3cn(C)c(=O)c4[nH]ccc34)c1)OC(C(C)C)C(=O)N2` (centres unmarked) [Example 9, 2-isopropyl-6-methoxy-8-(6-methyl-7-oxo-6,7-dihydro-1H-pyrrolo[2,3-c]pyridin-4-yl)-2H-1,4-benzoxazin-3(4H)-one], in experiment [1], the IC50 is ≤ 100 nM.

`COc1cc2c(c(-c3cn(C)c(=O)c4[nH]ccc34)c1)OC(C1CCCC1)C(=O)N2` (centres unmarked) [Example 35, 2-cyclopentyl-6-methoxy-8-(6-methyl-7-oxo-6,7-dihydro-1H-pyrrolo[2,3-c]pyridin-4-yl)-2H-1,4-benzoxazin-3(4H)-one]: the concentration for half-maximal inhibition (IC50) in experiment [1] was ≤ 100 nM.
